US11524966B1 (Valo Early Discovery, Inc., priority 2017, dated 2022)

Molecular target: T1, USP28 (USP28-5(1-1077)-TEV-6*His; LifeSensors) (Homo sapiens, UniProt Q96RU2)
T1 construct: construct USP28 (USP28-5(1-1077)-TEV-6*His; LifeSensors); TEV cleavage site (C); 6xHis (C); purchased LifeSensors
T1 sequence (Q96RU2 1-1077): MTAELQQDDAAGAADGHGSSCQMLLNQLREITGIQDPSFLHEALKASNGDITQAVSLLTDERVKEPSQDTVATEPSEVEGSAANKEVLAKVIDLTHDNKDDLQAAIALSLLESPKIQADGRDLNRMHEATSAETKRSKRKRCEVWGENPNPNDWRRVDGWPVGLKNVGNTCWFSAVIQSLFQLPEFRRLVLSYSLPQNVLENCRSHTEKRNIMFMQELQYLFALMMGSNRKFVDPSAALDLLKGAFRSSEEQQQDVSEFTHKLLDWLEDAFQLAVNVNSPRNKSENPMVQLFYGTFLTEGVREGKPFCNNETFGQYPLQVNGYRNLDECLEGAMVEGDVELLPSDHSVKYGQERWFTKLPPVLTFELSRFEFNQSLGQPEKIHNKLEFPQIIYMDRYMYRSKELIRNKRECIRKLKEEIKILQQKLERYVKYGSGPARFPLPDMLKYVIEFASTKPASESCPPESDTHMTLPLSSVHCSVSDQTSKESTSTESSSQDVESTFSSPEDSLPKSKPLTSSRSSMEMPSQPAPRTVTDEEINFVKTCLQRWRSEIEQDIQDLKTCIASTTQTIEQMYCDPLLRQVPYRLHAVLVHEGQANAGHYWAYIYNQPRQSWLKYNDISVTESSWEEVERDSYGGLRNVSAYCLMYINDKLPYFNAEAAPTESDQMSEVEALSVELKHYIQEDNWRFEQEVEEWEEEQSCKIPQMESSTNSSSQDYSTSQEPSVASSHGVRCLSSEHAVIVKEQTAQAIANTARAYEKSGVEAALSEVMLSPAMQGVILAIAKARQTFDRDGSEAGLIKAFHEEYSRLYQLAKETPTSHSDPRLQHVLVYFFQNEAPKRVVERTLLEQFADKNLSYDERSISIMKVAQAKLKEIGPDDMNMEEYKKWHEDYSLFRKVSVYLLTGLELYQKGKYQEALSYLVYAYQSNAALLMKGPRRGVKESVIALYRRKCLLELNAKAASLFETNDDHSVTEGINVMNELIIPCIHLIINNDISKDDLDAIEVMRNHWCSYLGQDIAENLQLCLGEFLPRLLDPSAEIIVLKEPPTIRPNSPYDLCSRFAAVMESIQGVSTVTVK
Assay: Ubiquitin-Rhodamine 110 Assay for USP28 Activity, Example A-1(b)
Format: biochemical
Conditions: Ub-Rh110 assay, Example A-1(b)
Experimental: Example A-1(b): Biochemical Assay: Ubiquitin-Rhodamine 110 Assay for USP28 Activity
Each assay was performed in a final volume of 20 μL in assay buffer containing 20 mM Tris-HCl (pH 8.0, (1M Tris-HCl, pH 8.0 solution; Corning 46-031-CM)), 2 mM CaCl2) (1M Calcium Chloride solution; Sigma #21114) 2 mM BME (2-Mercaptoethanol; Sigma 63689-25ML-F), 0.01% Prionex ([…] filtered, Sigma #G-0411), and 0.01% Triton X-100. Stock compound solutions were stored at −20° C. as 10 mM in DMSO. Up to 1 month prior to the assay, 2 mM test compounds were pre-dispensed into assay plates (Black, low volume; Corning #3820) and frozen at −20° C. Prestamped assay plates were allowed to come to room temperature on the day of the assay. For the screen, 100 nL of 2 mM was pre-dispensed for a final screening concentration of 10 μM (DMSO(fc)=0.5%). […] Plates were incubated stacked for 90 minutes at room temperature before fluorescence was read on the Envision (Excitation at 485 nm and Emission at 535 nm; Perkin Elmer) or on the PheraSTAR (Excitation at 485 nm and Emission at 535 nm; BMG Labtech).
For follow-up studies, each assay was performed in a final volume of 15 μL in assay buffer containing 20 mM Tris-HCl (pH 8.0, (1M Tris-HCl, pH 8.0 solution; Corning 46-031-CM)), 3 mM BME (2-Mercaptoethanol; Sigma 63689-25ML-F), 0.03% BGG (0.22 μM filtered, Sigma, G7516-25G), and 0.01% Triton X-100 (Sigma, T9284-10L). Nanoliter quantities of either an 8-point or 10-point, 3-fold serial dilution in DMSO was pre-dispensed into assay plates (Perkin Elmer, ProxiPlate-384 F Plus, #) for a final test concentration of either 25 μM to 11 nM or 25 μM to 1.3 nM, respectively. Enzyme USP28, construct USP28 (USP28-5(1-1077)-TEV-6*His; LifeSensors) concentration and incubation times were optimized for the maximal signal-to-background while maintaining initial velocity conditions at a fixed substrate concentration. The final concentration of the enzyme in the assay was 75 pM. Final substrate (Ub-Rh110; Ubiquitin-Rhodamine 110, R&D Systems #U-555) concentration was 25 nM with [Ub-Rh110]<<Km. 5 μL of 2× enzyme was added to assay plates (pre-stamped with compound) preincubated with USP28 for 30 minutes and then 5 μL of 2×Ub-Rh110 was added to assay plates. Plates were incubated stacked for 20 minutes at room temperature before 5 μL of stop solution was added (final concentration of 10 mM citric acid (Sigma, 251275-500G)). Fluorescence was read on the Envision (Excitation at 485 nm and Emission at 535 nm; Perkin Elmer) or on the PheraSTAR (Excitation at 485 nm and Emission at 535 nm; BMG Labtech).
For assay formats Example A-1(a), A-1(b), and A-2, data were reported as percent inhibition compared with control wells based on the following equation: % inh=1−((FLU−AveLow)/(AveHigh−AveLow)) where FLU=measured Fluorescence, AveLow=average Fluorescence of no enzyme control (n=16), and AveHigh=average Fluorescence of DMSO control (n=16). IC50 values were determined by curve fitting of the standard 4 parameter logistic fitting algorithm included in the Activity Base software package: IDBS XE Designer Model 205. Data is fitted using the Levenburg Marquardt algorithm.

| SMILES | USP28 A-1(b) IC50 range |
| --- | --- |
| Cc1ccc2c(N)c(C(=O)N[C@H]3COc4cc(N5CCNCC5)ccc4C3)sc2n1 (single isomer, unassigned) [Example 1-1] | +++ (0.05-0.2 μM) |
| Cc1ccc2c(N)c(C(=O)N[C@@H]3COc4cc(N5CCNCC5)ccc4C3)sc2n1 (single isomer, unassigned) [Example 1-2] | + (>2 μM) |
| Cc1ccc2c(N)c(C(=O)N[C@H]3COc4cc(N5CC6CCC(C5)N6)ccc4C3)sc2n1 (single isomer, unassigned) [Example 1-3] | +++ (0.05-0.2 μM) |
| Cc1ccc2c(N)c(C(=O)N[C@@H]3COc4cc(N5CC6CCC(C5)N6)ccc4C3)sc2n1 (single isomer, unassigned) [Example 1-4] | ++ (0.2-2 μM) |
| Cc1ccc2c(N)c(C(=O)N[C@H]3COc4cc(N5CC6CCCC(C5)N6)ccc4C3)sc2n1 (single isomer, unassigned) [Example 1-5] | ++++ (0.001-0.05 μM) |
| Cc1ccc2c(N)c(C(=O)N[C@@H]3COc4cc(N5CC6CCCC(C5)N6)ccc4C3)sc2n1 (single isomer, unassigned) [Example 1-6] | ++ (0.2-2 μM) |
| Cc1ccc2c(N)c(C(=O)N[C@H]3COc4cc(N5CCN[C@H](C)[C@@H]5C)ccc4C3)sc2n1 (single isomer, unassigned) [Example 1-9] | ++ (0.2-2 μM) |
| Cc1ccc2c(N)c(C(=O)N[C@@H]3COc4cc(N5CCN[C@H](C)[C@@H]5C)ccc4C3)sc2n1 (single isomer, unassigned) [Example 1-10] | ++ (0.2-2 μM) |
| Cc1ccc2c(N)c(C(=O)N[C@H]3COc4cc(N5CCN[C@H](C)[C@H]5C)ccc4C3)sc2n1 (single isomer, unassigned) [Example 1-11] | ++++ (0.001-0.05 μM) |
| Cc1ccc2c(N)c(C(=O)N[C@@H]3COc4cc(N5CCN[C@H](C)[C@H]5C)ccc4C3)sc2n1 (single isomer, unassigned) [Example 1-12] | ++++ (0.001-0.05 μM) |
| Cc1ccc2c(N)c(C(=O)N[C@H]3COc4cc(N5CCN[C@@H](C)[C@@H]5C)ccc4C3)sc2n1 (single isomer, unassigned) [Example 1-13] | ++ (0.2-2 μM) |
| Cc1ccc2c(N)c(C(=O)N[C@@H]3COc4cc(N5CCN[C@@H](C)[C@@H]5C)ccc4C3)sc2n1 (single isomer, unassigned) [Example 1-14] | ++ (0.2-2 μM) |
| Cc1nc2sc(C(=O)N[C@H]3COc4cc(N5CCNCC5)ccc4C3)c(N)c2cc1F (single isomer, unassigned) [Example 1-15] | +++ (0.05-0.2 μM) |
| Cc1nc2sc(C(=O)N[C@@H]3COc4cc(N5CCNCC5)ccc4C3)c(N)c2cc1F (single isomer, unassigned) [Example 1-16] | + (>2 μM) |
| Nc1c(C(=O)N[C@H]2COc3cc(N4CC5CCC(C4)N5)ccc3C2)sc2ncc(F)cc12 (single isomer, unassigned) [Example 1-17] | ++ (0.2-2 μM) |
| Nc1c(C(=O)N[C@@H]2COc3cc(N4CC5CCC(C4)N5)ccc3C2)sc2ncc(F)cc12 (single isomer, unassigned) [Example 1-18] | + (>2 μM) |
| Cc1cnc2c(N)c(C(=O)N[C@H]3COc4cc(N5CCNCC5)ccc4C3)sc2n1 (single isomer, unassigned) [Example 1-21] | ++ (0.2-2 μM) |
| Cc1cnc2c(N)c(C(=O)N[C@@H]3COc4cc(N5CCNCC5)ccc4C3)sc2n1 (single isomer, unassigned) [Example 1-22] | + (>2 μM) |
| CCn1ccc2cc(C(=O)N[C@@H]3COc4cc(N5CC6CCC(C5)N6)ccc4C3)cnc21 (single isomer, unassigned) [Example 1-27] | + (>2 μM) |
| CCn1ccc2cc(C(=O)N[C@H]3COc4cc(N5CC6CCC(C5)N6)ccc4C3)cnc21 (single isomer, unassigned) [Example 1-28] | +++ (0.05-0.2 μM) |
| Cc1ccc2c(N)c(C(=O)N[C@@H]3COc4cc(N5CC6CCC(C5)N6)cc(F)c4C3)sc2n1 (single isomer, unassigned) [Example 1-30] | + (>2 μM) |
| Cc1ccc2c(N)c(C(=O)N[C@H]3COc4cc(N5CCNCC5)c(OC(F)(F)F)cc4C3)sc2n1 (single isomer, unassigned) [Example 1-31] | + (>2 μM) |
| Cc1ccc2c(N)c(C(=O)N[C@@H]3COc4cc(N5CCNCC5)c(OC(F)(F)F)cc4C3)sc2n1 (single isomer, unassigned) [Example 1-32] | ++ (0.2-2 μM) |
| Cc1nc2sc(C(=O)N[C@H]3COc4cc(N5CCNCC5)cc(F)c4C3)c(N)c2s1 (single isomer, unassigned) [Example 1-37] | + (>2 μM) |
| Cc1nc2sc(C(=O)N[C@@H]3COc4cc(N5CCNCC5)cc(F)c4C3)c(N)c2s1 (single isomer, unassigned) [Example 1-38] | ++ (0.2-2 μM) |
| Cc1nc2sc(C(=O)N[C@H]3COc4cc(N5CC6CCC(C5)N6)cc(F)c4C3)c(N)c2s1 (single isomer, unassigned) [Example 1-39] | ++ (0.2-2 μM) |
| Cc1nc2sc(C(=O)N[C@@H]3COc4cc(N5CC6CCC(C5)N6)cc(F)c4C3)c(N)c2s1 (single isomer, unassigned) [Example 1-40] | + (>2 μM) |
| Cc1ccc2c(N)c(C(=O)N[C@@H]3COc4cc(N5CC6CC(C5)N6)cc(F)c4C3)sc2n1 (single isomer, unassigned) [Example 1-41] | +++ (0.05-0.2 μM) |
| Cc1ccc2c(N)c(C(=O)N[C@H]3COc4cc(N5CC6CC(C5)N6)cc(F)c4C3)sc2n1 (single isomer, unassigned) [Example 1-42] | + (>2 μM) |
| Cc1cnc2c(N)c(C(=O)N[C@H]3CCc4cc(N5CCNCC5)c(C)cc4C3)sc2n1 (single isomer, unassigned) [Example 2-34] | ++ (0.2-2 μM) |
